# Read-outs that look alike come from different tables or passages of the source.
# How the values were obtained:
# Format in all cases: cell-based, human
# [1] = system: p-ERK in NCI-H441 cells (KRAS G12V mutation); test: Cell p-ERK assay (HTRF) in NCI-H441 cells; conditions: NCI-H441 cells, 3 h compound incubation, HTRF p-ERK T202/Y204, read-out: H441 p-ERK IC50
# Summary of the method: (§1)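 In this cellular format, endogenous KRAS-mutant lines grown in RPMI-1640 plus 10% FBS received graded compound concentrations for 3 h at 37 °C. Lysates were incubated 4 h with the phospho-T202/Y204 ERK HTRF antibody pair, and percent inhibition relative to DMSO and blank wells was curve-fitted to give IC50.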
# [2] = system: p-ERK in AsPC-1 cells (KRAS G12D mutation); test: Cell p-ERK assay (HTRF) in AsPC-1 cells; conditions: AsPC-1 cells, 3 h compound incubation, HTRF p-ERK T202/Y204, read-out: AsPC-1 p-ERK IC50
# Summary of the method: as §1
# [3] = system: AsPC-1 cells (KRAS G12D mutation); test: 3D cell proliferation assay (CellTiter Glo-3D), AsPC-1; conditions: medium with 2% FBS, read-out: AsPC-1 AP IC50
# Summary of the method: (§2)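 800 cells/well (NCI-H441, […]; AsPC-1, KRAS G12D), low-serum RPMI-1640 (2% FBS), overnight attach; 3.16-fold serial dilutions added, 0.1% DMSO; 5 d, 37 °C; CellTiter-Glo 3D RLU; IC50, 4-parameter fit.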
# NCI-H441 cells = test: 3D cell proliferation assay (CellTiter Glo-3D), NCI-H441; conditions: medium with 2% FBS, read-out: H441 AP IC50
# Summary of the method: as §2
# [4] = Homo sapiens, ASPC1, 3D cell proliferation (CellTiter Glo-3D)
# [5] = Homo sapiens, NCI-H441, 3D cell proliferation (CellTiter Glo-3D)
# [6] = 3D cell proliferation (CellTiter Glo-3D)
"IC50 ([1]; Homo sapiens, NCI-H441, 3 h) [nM]","IC50 ([2]; Homo sapiens, ASPC1, 3 h) [nM]","IC50 [3, 4] [nM]",IC50 (NCI-H441 cells; [5]) [nM],IC50 [1] [nM],IC50 [2] [nM],"IC50 [3, 6] [nM]",IC50 (NCI-H441 cells; [6]) [nM],Compound
19,19.2,30.3,29.9,–,–,–,–,"CCn1c(-c2cc(N(C)CC3COCCN3C)cnc2[C@H](C)OC)c2c3cc(ccc31)-c1csc(n1)C[C@H](NC(=O)[C@H]1[C@H](C)[C@@H]1C)C(=O)N1CCC[C@H](N1)C(=O)OCC(C)(C)C2 (stereo partly drawn) [Compound Z76, (1r,2R,3S)—N-((6^3S,4S,Z)-1^1-ethyl-1^2-(2-((S)-1-methoxyethyl)-5-(methyl((4-methylmorpholin-3-yl)methyl)amino)pyridin-3-yl)-10,10-dimethyl-5,7-dioxo-6^1,6^2,6^3,6^4,6^5,6^6-hexahydro-11H-8-oxa-2(4,2)-thiazola-1(5,3)-indola-6(1,3)-pyridazinacycloundecaphane-4-yl)-2,3-dimethylcyclopropane-1-carboxamide]"
–,–,–,–,3.67,9.45,6.28,4.75,"CO[C@@H](C)c1ncc(OCCN2CCOC3(CC3)C2)cc1-c1c2c3cc(ccc3n1CC(F)(F)F)-c1csc(n1)C[C@H](NC(=O)[C@H]1[C@H](C)[C@@H]1C)C(=O)N1CCC[C@H](N1)C(=O)OCC1(CC1)C2 (atropisomer, axis not shown; (Ra)) [Compound Z380, (1r,2R,3S)—N-((3′S,4′S,Z)—(Ra)-2′-(5-(2-(4-oxa-7-azaspiro[2,5]octan-7-yl)ethoxy)-2-((S)-1-methoxyethyl)pyridin-3-yl)-5′,7′-dioxo-1′-(2,2,2-trifluoroethyl)spiro[cyclopropane-1,10′-8-oxa-2(4,2)-thiazola-1(5,3)-indola-6(1,3)-pyridazinacycloundecaphan]-4-yl)-2,3-dimethylcyclopropane-1-carboxamide]"
–,–,–,–,0.17,0.06,0.17,0.06,"CO[C@@H](C)c1ncc(OCCN2CCS(=O)(=O)CC2)cc1-c1c2c3cc(ccc3n1C(C)C)-c1csc(n1)C[C@H](NC(=O)[C@H]1[C@H](C)[C@@H]1C)C(=O)N1CCC[C@H](N1)C(=O)OCC(C)(C)C2 (atropisomer, axis not shown; (Ra)) [Compound Z678, (1r,2R,3S)—N-((6^3S,4S,Z)—(Ra)-1^2-(5-(2-(1,1-dioxidothiomorpholino)ethoxy)-2-((S)-1-methoxyethyl)pyridin-3-yl)-1^1-isopropyl-10,10-dimethyl-5,7-dioxo-6^1,6^2,6^3,6^4,6^5,6^6-hexahydro-1^1H-8-oxa-2(4,2)-thiazola-1(5,3)-indola-6(1,3)-pyridazinacycloundecaphane-4-yl)-2,3-dimethylcyclopropane-1-carboxamide]"
0.17,0.29,0.22,0.16,–,–,–,–,"CCn1c(-c2cc(N3CCC(N4CCS(=O)(=O)CC4)CC3)cnc2[C@H](C)OC)c2c3cc(ccc31)-c1csc(n1)C[C@H](NC(=O)[C@H]1[C@H](C)[C@@H]1C)C(=O)N1CCC[C@H](N1)C(=O)OCC(C)(C)C2 (atropisomer, axis not shown; (Ra)) [Compound Z855, (1r,2R,3S)—N-((6S,4S,Z)—(Ra)-1^2-(5-(4-(1,1-dioxidothiomorpholino)piperidin-1-yl)-2-((S)-1-methoxyethyl)pyridin-3-yl)-1^1-ethyl-10,10-dimethyl-5,7-dioxo-6^1,6^2,6^3,6^4,6^5,6^6-hexahydro-1^1H-8-oxa-2(4,2)-thiazola-1(5,3)-indola-6(1,3)-pyridazinacycloundecaphane-4-yl)-2,3-dimethylcyclopropane-1-carboxamide]"
11.7,25.3,19,7.27,–,–,–,–,"CCn1c(-c2cc([C@@H]3CCN4CCOC[C@H]4C3)cnc2[C@H](C)OC)c2c3cc(ccc31)-c1csc(n1)C[C@H](NC(=O)[C@H]1[C@H](C)[C@@H]1C)C(=O)N1CCC[C@H](N1)C(=O)OCC1(CC1)C2 (single isomer, unassigned) [Compound Z80]"
–,–,–,–,0.33,0.21,0.45,0.34,"CCn1c(-c2cc(OCC3(N4CCS(=O)(=O)CC4)CC3)cnc2[C@H](C)OC)c2c3cc(ccc31)-c1csc(n1)C[C@H](NC(=O)[C@H]1[C@H](C)[C@@H]1C)C(=O)N1CCC[C@H](N1)C(=O)OCC(C)(C)C2 [Compound Z449, (1r,2R,3S)—N-((6^3S,4S,Z)-1^2-(5-((1-(1,1-dioxidothiomorpholino)cyclopropyl)methoxy)-2-((S)-1-methoxyethyl)pyridin-3-yl)-1^1-ethyl-10,10-dimethyl-5,7-dioxo-6^1,6^2,6^3,6^4,6^5,6^6-hexahydro-1^1-hydrogen-8-oxa-2(4,2)-thiazola-1(5,3)-indola-6(1,3)-pyridazinacycloundecaphane-4-yl)-2,3-dimethylcyclopropane-1-carboxamide]"
0.55,0.42,1.1,0.28,–,–,–,–,"CCn1c(-c2cc(OCCN3CCN(C)S(=O)(=O)CC3)cnc2[C@H](C)OC)c2c3cc(ccc31)-c1csc(n1)C[C@H](NC(=O)[C@H]1[C@H](C)[C@@H]1C)C(=O)N1CCC[C@H](N1)C(=O)OCC(C)(C)C2 (atropisomer, axis not shown; (Ra)) [Compound Z796]"
0.7,1.05,2.15,1.17,–,–,–,–,"CCn1c(-c2cc(C#C[C@H]3CCCN3C)cnc2[C@H](C)OC)c2c3cc(ccc31)-c1csc(n1)C[C@H](NC(=O)[C@H]1[C@H](C)[C@@H]1C)C(=O)N1CCC[C@H](N1)C(=O)OCC(C)(C)C2 (atropisomer, axis not shown; (Ra)) [Compound Z599, (1r,2S,3R)—N-((6^3S,4S,Z)—(Ra)-1^2-(5-(((R)-1-methylpyrrolidin-2-yl)ethynyl)-2-((S)-1-methoxyethyl)pyridin-3-yl)-1^1-ethyl-10,10-dimethyl-5,7-dioxo-6^1,6^2,6^3,6^4,6^5,6^6-hexahydro-1^1H-8-oxa-2(4,2)-thiazola-1(5,3)-indola-6(1,3)-pyridazinacycloundecaphane-4-yl)-2,3-dimethylcyclopropane-1-carboxamide]"
–,–,–,–,22.2,61.9,87.9,18.2,"CCn1c(-c2cc(N3CCN(C)CC3)cnc2[C@H](C)OC)c2c3cc(ccc31)-c1csc(n1)C[C@H](Nc1nnc3cc(OC)ccn13)C(=O)N1CCC[C@H](N1)C(=O)OCC(C)(C)C2 (atropisomer, axis not shown; (Ra)) [Compound Z777, N-((6^3S,4S,Z)-1^1-ethyl-(Ra)-1^2(2-((S)-1-methoxyethyl)-5-(4-methylpiperazin-1-yl)pyridin-3-yl)-10,10-dimethyl-5,7-dioxo-6^1,6^2,6^3,6^4,6^5,6^6-hexahydro-1^1H-8-oxa-2(4,2)-thiazola-1(5,3)-indola-6(1,3)-pyridazinacycloundecaphane-4-yl)-4-(7-methoxy-[1,2,4]triazolo[4,3-a]pyridin-3-yl)amine]"
–,–,0.24,0.09,0.35,0.11,–,–,"CCn1c(-c2cc(OCCN3CCS(=O)(=O)CC3)cnc2[C@H](C)OC)c2c3cc(ccc31)-c1csc(n1)C[C@H](NC(=O)[C@H]1[C@H](C)[C@@H]1C)C(=O)N1CCC[C@H](N1)C(=O)OCC(C)(C)C2 (atropisomer, axis not shown; (Ra)) [Compound Z469, (0r,2R,3S)—N-((6^3S,4S,Z)—(Ra)-1^2-(5-(2-(1,1-dioxidothiomorpholino)ethoxy)-2-((S)-1-methoxyethyl)pyridin-3-yl)-1^1-ethyl-10,10-dimethyl-5,7-dioxo-6^1,6^2,6^3,6^4,6^5,6^6-hexahydro-1^1H-8-oxa-2(4,2)-thiazola-1(5,3)-indola-6(1,3)-pyridazinacycloundecaphane-4-yl)-2,3-dimethylcyclopropane-1-carboxamide]"
0.57,0.71,1.37,0.32,–,–,–,–,"CC[C@@H](C)C(=O)N[C@H]1Cc2nc(cs2)-c2ccc3c(c2)c(c(-c2cc(OCCN4CCS(=O)(=O)CC4)cnc2[C@H](C)OC)n3CC)CC(C)(C)COC(=O)[C@@H]2CCCN(N2)C1=O (atropisomer, axis not shown; (Ra)) [Compound Z610, (2R)—N-((6^3S,4S,Z)—(Ra)-1^2-(5-(2-(1,1-dioxidothiomorpholino)ethoxy)-2-((S)-1-methoxyethyl)pyridin-3-yl)-1^1-ethyl-10,10-dimethyl-5,7-dioxo-6^1,6^2,6^3,6^4,6^5,6^6-hexahydro-1^1H-8-oxa-2(4,2)-thiazola-1(5,3)-indola-6(1,3)-pyridazinacycloundecaphane-4-yl)-2-methylbutanamide]"

# Reference: patent US20260234165A1, “MACROCYCLIC COMPOUNDS, PREPARATION METHOD THEREFOR, AND USE THEREOF” (GENFLEET THERAPEUTICS (SHANGHAI) INC., priority 2004, published 2026)
